Reference: patent US12329735B2, “Azelaic acid esters in the treatment of insulin resistance” (NEW FRONTIER LABS, LLC, priority 2016, dated 2025)

Key:
[1] = tested on: EpiDerm 3-D human skin tissue; experiment: EpiDerm 3-D human skin tissue exposed to croton oil plus azelates, multiplex immunoassays of 47 markers; type: cell-based; details: croton oil + azelate, 24 hours; medium and tissue lysates
Protocol: EpiDerm 3-D human skin tissue (MatTek) was exposed to an irritant, croton oil+the azelates for 24 hours. Levels of 47 cytokines and other signaling molecules were measured in cultured media and tissue lysates using multiplex immunoassays. Relative % differences in levels of select markers in medium and tissues after treatment with croton oil plus azelates versus croton oil alone were graphed as heat maps displaying statistically significant/nearly significant differences and distinct patterns of marker modulation. The azelates also exerted chemoprotective activity against croton oil damage on microscopic examination.

[2] = tested on: PAMP receptors (Toll-Like Receptors) on dendritic cells; experiment: PAMP receptor agonist-induced signaling in dendritic cells; type: cell-based; details: 0.5% DEA, 24 hours
Protocol: The azelates modulated broad-range signaling of pathogen-associated molecular patterns (PAMP) receptors: Toll-Like Receptors (TLRs) are a class of PAMP receptors. Various PAMP receptor agonists (ligands); nineteen discrete entities, were added to dendritic cells along with 0.5% diethyl azelate (DEA) and measured levels of 34 signaling molecules (ATP, cytokines, chemokines) produced by the cells after 24 hours. To assess if DEA affected PAMP receptor signaling, the ratios of the levels of these molecules were calculated in treated and untreated cells. If DEA had no effect, these ratios would be equal to 1. […] A similar effect of DEA was observed on the ratios of other signaling molecules.

[3] = Oral glucose tolerance test in ethanol-induced insulin resistance state, human self-study; type: in vivo
[4] = Human clinical trial: OGTT in non-diabetic insulin resistant adult males at Day 1 and Day 21; type: in vivo; details: for Percent change: Day-1 vs. Day-21 average blood glucose: (Day-1 − Day-21)/Day-21 ×100%; for OGTT Blood Glucose Level, Day-21 Group Average: after 21 days 1 mg/kg oral once a day, 3 subjects
Protocol: A total of eight subjects were screened, out of which four subjects satisfied all the eligibility criteria. Three healthy male volunteers ranging between 18-50 years of age weighing between 80-120 kg were enrolled in the study. At screening, subjects were non-diabetic insulin resistant (NDIR) having a fasting plasma glucose of greater than 75 mg/dL and less than 126 mg/dL and have a compensatory hyperinsulinemia having a mean of two consecutive fasting insulin samples collected between 10 to 30 minutes apart of great than 12 μIU/mL. Subjects had no clinically significant illness that may affect glucose metabolism, insulin sensitivity or makes them otherwise unsuitable for inclusion in the study. Subjects had no history or ongoing significant abnormalities or diseases, in the areas, such as, endocrine, gastrointestinal, cardiovascular, hematological, renal, upper or lower respiratory, neoplasia. Subjects had no uncontrolled blood pressure of greater than 160/95 mmHg at screening. […] Subjects had not used antidiabetic or antihyperglycemic medications in the last 6 months. Subjects had not used tobacco or nicotine containing products in the last 3 months. Subjects were not mentally or legally incapacitated. Subjects had no history of significant psychiatric disorder (within the last 10 years) and had no significant emotional problems at the time of the study. All subjects were evaluable for safety and all blood collections for pharmacokinetic analysis were collected as scheduled. All studies were performed with institutional review board approval and patient consent. The Board was constituted and operated in accordance with the principles and requirements described in the US Code of Federal Regulations (21 CFR Part 56). The board was ICH compliant. This study was an open label test/retest study measuring the change from baseline of selected biomarkers and computational indices of insulin sensitivity of the adult male volunteers in response to multiple doses of diethyl azelate. The study population was restricted to male participants in order to control for the variability associated with the menstrual cycle on the metabolic parameters of interest (Sheu, Chen et al. 2003). Baseline parameters were assessed followed by retest assessments at three weeks (21-days) post-dose. Diethyl azelate (density of 0.973 g/mL at 25° C. or 973 mg/mL) was administered orally by needless syringes once a day at 1 mg/kg to each subject for 21 days starting at Day 1. The dose was calculated as described below, with standard rounding conventions applied to the nearest 0.01 mL: 1 mg/kg×Participant Weight (kg)×(1 mL/973 mg)=X mL to Dose Additional marketed pharmaceutical products were administered as part of the study procedures or as challenge agents associated with the Oral Glucose Tolerance (OGTT). These include 75 g CHO (carbohydrate) Glucola and small volumes of 0.9% Normal Saline administered intravenously secondary to blood collection. Subjects were evaluated with a baseline OGTT on Day 1 and a final OGTT on Day 21. Safety assessments were performed on each subject during the course of the study including clinical examination, vital signs recording, ECG recording, adverse event (AE) monitoring, and concomitant medication assessment. An Oral Glucose Tolerance Test (OGTT) was performed at baseline on Day 1 and Day 21. The OGTT was performed after a fast greater than eight hours and consisted of eight blood collections. Subjects were administrated a bottle of Glucola drink (containing 50% dextrose I 75 g dextrose in 150 mL solution; available as GlucoCrush™) over a course of five minutes, starting at T=0 (first sip of the Glucola). Two blood-draws occurred ˜30 minutes and just prior (˜0 minute) to administration of the Glucola. Post-meal blood collection occurred at 30, 60, 90, 120, and 180 minutes. Samples for glucose and exploratory PK and biomarker samples were collected at all timepoints associated with the OGTT. […]

[5] = Human clinical trial: safety and tolerability; type: in vivo
Protocol: To evaluate the safety and tolerability of diethyl azelate (immediate release form) when administered orally to insulin resistant adult male volunteers, and to evaluate the change from baseline of selected biomarkers and computational indices of dysmetabolism when diethyl azelate is administered orally to insulin resistant adult male volunteers.
A total of eight subjects were screened, out of which four subjects satisfied all the eligibility criteria. Three healthy male volunteers ranging between 18-50 years of age weighing between 80-120 kg were enrolled in the study. At screening, subjects were non-diabetic insulin resistant (NDIR) having a fasting plasma glucose of greater than 75 mg/dL and less than 126 mg/dL and have a compensatory hyperinsulinemia having a mean of two consecutive fasting insulin samples collected between 10 to 30 minutes apart of great than 12 μIU/mL. Subjects had no clinically significant illness that may affect glucose metabolism, insulin sensitivity or makes them otherwise unsuitable for inclusion in the study. Subjects had no history or ongoing significant abnormalities or diseases, in the areas, such as, endocrine, gastrointestinal, cardiovascular, hematological, renal, upper or lower respiratory, neoplasia. Subjects had no uncontrolled blood pressure of greater than 160/95 mmHg at screening. […] Subjects had not used antidiabetic or antihyperglycemic medications in the last 6 months. […]
Diethyl azelate (density of 0.973 g/mL at 25° C. or 973 mg/mL) was administered orally by needless syringes once a day at 1 mg/kg to each subject for 21 days starting at Day 1. The dose was calculated as described below, with standard rounding conventions applied to the nearest 0.01 mL: 1 mg/kg×Participant Weight (kg)×(1 mL/973 mg)=X mL to Dose
Additional marketed pharmaceutical products were administered as part of the study procedures or as challenge agents associated with the Oral Glucose Tolerance (OGTT). […] Subjects were evaluated with a baseline OGTT on Day 1 and a final OGTT on Day 21. […]

[6] = oral 1 mg/kg once a day, 21 days, three subjects

Q: Which “cytokine levels (IL-1 a, IL-6, IL-8, TNF-a) versus croton oil alone” value [1] does the source give for `CCOC(=O)CCCCCCCC(=O)OCC` [diethyl azelate] here?
A: The value was “downregulated multiple cytokines relevant to T2D including IL-1 a, IL-6, IL-8, and TNF-a”.

Q: And the “signaling induced by TLR agonists (ATP ratio treated/untreated cells)” value [2]?
A: The value was “decreased signaling induced by most TLR agonists”.

Q: What about the “effect on signaling of PAMP receptors” value ([2]; 34 signaling molecules) of the same molecule?
A: The value was “affected signaling of all PAMP receptors but the effect was greater for the receptors localized on the cell surface than for these inside the cell”.

Q: What about the “percentage decrease of glucose levels vs untreated control state (ethanol-induced insulin resistance)” value (“percentage decrease of glucose levels” below) ([3]; fasting (t=0), p=0.02) of the same molecule?
A: The value was 13.6%.

Q: And the “change in blood glucose in induced insulin resistance state (OGTT)” value ([3]; human self-study, 50 ml ethanol, 1 mg/kg oral 8 hours prior to OGTT (75 g glucose), 0, 1, 2, 4 hours)?
A: Its value is “significant decrease of glucose at the baseline (fasting) and highly significant (p<0.0001) at the peak postprandial time point at 2 hours”.

Q: And the “percentage decrease of glucose levels” value ([3]; t=1 hour, statistically not significant)?
A: Its value is 11.4%.

Q: And the “percentage decrease of glucose levels” value ([3]; t=2 hours, p=6×10−6)?
A: Its value is 36.7%.

Q: And the “increase in glucose level vs untreated control state (ethanol-induced insulin resistance)” value ([3]; t=4 hours, not statistically significant)?
A: Its value is 8.8%.

Q: What about the “Percent change: Day-1 vs. Day-21 average blood glucose” value (“Percent change” for short) ([4]; 0 min) of the same molecule?
A: Its value is 6.5%.

Q: And the “OGTT Blood Glucose Level, Day-21 Group Average” value (from here on “OGTT Blood Glucose Level”) ([4]; 0 min)?
A: Its value is 94.5 mg/dL.

Q: What about the “Percent change” value ([4]; 30 min) of the same molecule?
A: The value was 14.5%.

Q: And the “OGTT Blood Glucose Level” value ([4]; 30 min)?
A: Its value is 148.0 mg/dL.

Q: What about the “Percent change” value ([4]; 60 min) of the same molecule?
A: Its value is 15.7%.

Q: And the “OGTT Blood Glucose Level” value ([4]; 60 min)?
A: Its value is 142.3 mg/dL.

Q: What about the “Percent change” value ([4]; 90 min) of the same molecule?
A: The value was 46.3%.

Q: And the “OGTT Blood Glucose Level” value ([4]; 90 min)?
A: Its value is 105.8 mg/dL.

Q: And the “Percent change” value ([4]; 120 min)?
A: Its value is 15.1%.

Q: And the “OGTT Blood Glucose Level” value ([4]; 120 min)?
A: The value was 99.2 mg/dL.

Q: What about the “Percent change” value ([4]; 180 min) of the same molecule?
A: The value was 18.6%.

Q: And the “OGTT Blood Glucose Level” value ([4]; 180 min)?
A: The value was 71.2 mg/dL.

Q: What about the “insulin metabolism profile after treatment” value ([4]; all three subjects, after 21 days of treatment) of the same molecule?
A: Its value is “normal healthy insulin metabolism profiles”.

Q: And the “average blood glucose levels after the 3-weeks treatment course” value ([4]; at T=30 mins and 60 mins, pre-treatment 164 to 170 mg/dl)?
A: Its value is “below 150 mg/dl”.

Q: What about the “Percent change” value ([4]; −5 min) of the same molecule?
A: The value was 6.2%.

Q: And the “OGTT Blood Glucose Level” value ([4]; −5 min)?
A: The value was 94.0 mg/dL.

Q: And the “Percent change” value ([4]; −30 min)?
A: The value was 6.0%.

Q: What about the “OGTT Blood Glucose Level” value ([4]; −30 min) of the same molecule?
A: The value was 94.1 mg/dL.

Q: And the adverse events observed [5, 6]?
A: Its adverse events observed is “loose stools in one subject”.

Q: And the “drug-related changes in physical examinations, vital signs, or electrocardiograms (ECGs)” value [5, 6]?
A: Its value is “no clinically meaningful drug-related changes”.

Q: And the tolerability ([5]; oral, three male subjects)?
A: Its tolerability is “well tolerated”.
